The source of these data is patent US9241951B2, “Of gastrointestinal health, immunity and performance by dietary intervention” (BIOATLANTIS LTD, priority 2009, dated 2016).

Assay [1] can be described thus: Piglet performance with lactose and SWE, Example 3. The assay is classed as in vivo, pig.
Assay [2] is described as follows: Coefficient of total tract apparent digestibility, Example 3. Format: in vivo, pig. Particulars: SWE − or +.
A further assay has as its system Escherichia coli. The experiment in a line: Faecal microbiology, Example 3. The assay is classed as in vivo, pig. Particulars: SWE − or +. As to the method: (§1) This experiment was carried out over two consecutive periods of 25 days. 240 piglets were selected after weaning at 24 days and assigned to one of four dietary treatments. Pigs in period 1 and 2 had initial live weights of 7.2 Kg and 7.8 Kg (±0.9 Kg), respectively. This experiment was designed as a 2×2 factorial. During the experiment (days 0-25) piglets were offered the following diets: (T1) 150 g/Kg lactose; (T2) 150 g/Kg lactose+SWE; (T3) 250 g/Kg lactose (T4) 250 g/Kg lactose+SWE. SWE was included at 2.8 g/Kg and derived from Laminaria digitata. It contained laminarin (112 g/Kg), fucoidan (89 g/Kg) and ash (799 g/Kg).
(§2) Pigs were housed in groups of 4 (n=15/treatment) and weighed at weaning (day 0), day 7, 14 and 25. Pigs were fed ad libitum. Fresh faecal samples were collected on days 10 to 15 for determination of nutrient digestibility and VFA analysis. Fresh faecal samples were collected on day 10 for enumeration of E. coli and Lactobacilli (O'Connell et al., 2005).
(§3) 1 g of faecal sample was serially diluted in maximum recovery diluent (MRD; Oxoid, Basingstoke, UK) and plated on selective agars. Lactobacillus spp. were isolated on de Man Rogosa Sharp agar (MRS, Oxoid). The API 50 CHL (BioMerieux, France) kit was used to confirm suspect Lactobacilli spp. E. coli species were isolated on MacConkey agar (Oxoid). Suspect colonies were confirmed with API 20E (BioMerieux, France).

The test system of assay [3] is Lactobacilli. The experiment in a line: Faecal microbiology, Example 3. Format: in vivo, pig. Particulars: SWE − or +. As to the method: as §1, §2, §3
Assay [4] is described as follows: Pig performance post weaning with LAM and FUC, Example 4. The assay is classed as in vivo. Particulars: for ADG: days 14-21. An excerpt: (§4) One hundred and ninety two piglets were weaned at twenty four days of age, with an initial live weight of 6.4±0.785 Kg and assigned to one of four dietary treatments or 21 days post weaning. The dietary treatments consisted of (T1) basal diet, (T2) basal diet with 300 ppm LAM, (T3) basal diet with 236 ppm FUC, (T4) Basal diet with 300 ppm LAM and 236 ppm FUC. Diets were formulated to have identical concentrations of digestible energy (DE) (16 MJ/Kg) and ileal digestible lysine (14 g/Kg). All amino acid requirements were met relative to lysine (Close, 1994). Chromium III oxide was added to the diets for determination of nutrient digestibility. The LAM and FUC were derived from Laminaria hyperborea.
(§5) Piglets were housed in groups of 4 and offered feed twice daily. Water was supplied ad-libitum. Any pig displaying symptoms of illness was treated appropriately and recorded. Pigs were weighed on day 0 (day of weaning), 7, 14 and 21. Feed intake was monitored weekly. Fresh faecal samples were taken on day 10 and were analysed for E. coli and Lactobacilli concentrations. Faeces samples were collected from each pen on day 12-17 and were retained for chemical analysis. Fresh faecal samples were removed on day 14 and were frozen and retained for volatile fatty acid analysis. Fresh faecal samples were taken on day 17 for pH determination.

In assay [5] the test system is Lactobacilli. The experiment in a line: Faecal microbiology, Example 4. The assay is classed as in vivo, pig.
From the text: as §4, §5
A sample was serially diluted (1:10) in 9.0 ml aliquots of maximum recovery diluent (MRD, Oxoid, Basingstoke, UK), and spread plated (0.1 ml aliquots) onto selective agars. Lactobacillus spp. were isolated on de Man, Rogosa, Sharp agar (MRS, Oxoid) with overnight incubation at 37° C. in 5% CO2. The API 50 CHL (BioMerieux, France) kit was used to confirm suspect Lactobacilli spp. E. coli species were isolated on MacConkey agar (Oxoid), following aerobic incubation at 37° C. for 18-24 hours. Suspect colonies were confirmed with API 20E (BioMerieux, France).

Where [6] appears, read: Day 0-7, diet with 150 g/Kg lactose, SWE 2.8 g/Kg where included.
Setting [7] is: Day 0-7, diet with 250 g/Kg lactose, SWE 2.8 g/Kg where included.
Setting [8] is: Day 0-25, diet with 150 g/Kg lactose, SWE 2.8 g/Kg where included.
The mark [9] stands for this setting: Day 0-25, diet with 250 g/Kg lactose, SWE 2.8 g/Kg where included.
Setting [10] is: Day 7-14, diet with 150 g/Kg lactose, SWE 2.8 g/Kg where included.
Setting [11] is: Day 7-14, diet with 250 g/Kg lactose, SWE 2.8 g/Kg where included.
The mark [12] stands for this setting: Day 14-25, diet with 150 g/Kg lactose, SWE 2.8 g/Kg where included.
[13] abbreviates: Day 14-25, diet with 250 g/Kg lactose, SWE 2.8 g/Kg where included.

For the compound `OC[C@H]1O[C@@H](O[C@H]2[C@H](O)[C@@H](O)C(O)O[C@@H]2CO)[C@H](O)[C@@H](O)[C@H]1O` (stereo partly drawn) [Lactose, lactose], the “Average Daily Gain (ADG)” value in assay [1] (Day 0-7, diet with 150 g/Kg lactose, SWE 2.8 g/Kg (L. digitata) where included) was determined as 0.100 kg/day; in assay [1] (Day 0-7, diet with 250 g/Kg lactose, SWE 2.8 g/Kg (L. digitata) where included), 0.146 kg/day; in assay [1] (setting [8]) it was 0.275 kg/day; in assay [1] (setting [9]), 0.287 kg/day; in assay [1] (setting [10]) it was 0.302 kg/day; in assay [1] (setting [11]), 0.325 kg/day. In addition, the entries for the “Average Daily Gain (ADG)” value in assay [1] (setting [12]) and in assay [1] (setting [13]) were 0.438 kg/day and 0.388 kg/day, respectively. Besides, the “Average Daily Feed Intake (ADFI)” value turned out to be 0.242 kg/day in assay [1] (setting [6]); 0.239 kg/day in assay [1] (setting [7]); 0.446 kg/day in assay [1] (setting [8]); 0.458 kg/day in assay [1] (setting [9]); 0.415 kg/day in assay [1] (setting [10]); 0.450 kg/day in assay [1] (setting [11]). In addition, the “Average Daily Feed Intake (ADFI)” value is 0.682 kg/day in assay [1] (setting [12]) and 0.683 kg/day in assay [1] (setting [13]). The “Gain: Feed ratio” value came out at 0.413 Kg/Kg in assay [1] (setting [6]); 0.589 Kg/Kg in assay [1] (setting [7]); 0.603 Kg/Kg in assay [1] (setting [8]); 0.619 Kg/Kg in assay [1] (setting [9]); 0.747 Kg/Kg in assay [1] (setting [10]); 0.729 Kg/Kg in assay [1] (setting [11]). Besides, the “Gain: Feed ratio” value in assay [1] (setting [12]) was determined as 0.633 Kg/Kg; in assay [1] (setting [13]) it was 0.569 Kg/Kg. Besides, the “Digestibility Ash” value is recorded as 53.30% in assay [2] (diet Lactose 150 g/Kg) and 72.80% in assay [2] (diet Lactose 250 g/Kg). Besides, the entries for the “Digestibility DM” value in assay [2] (diet Lactose 150 g/Kg) and in assay [2] (diet Lactose 250 g/Kg) were 87.75% and 91.34%, respectively. The results for the “Digestibility GE” value in assay [2] (diet Lactose 150 g/Kg) and in assay [2] (diet Lactose 250 g/Kg) were 85.93% and 90.22%, respectively. The figures for the “Digestibility N” value in assay [2] (diet Lactose 150 g/Kg) and in assay [2] (diet Lactose 250 g/Kg) were 83.69% and 86.86%, respectively. The results for the “Digestibility NDF” value in assay [2] (diet Lactose 150 g/Kg) and in assay [2] (diet Lactose 250 g/Kg) were 37.55% and 61.91%, respectively. The “Digestibility OM” value in assay [2] (diet Lactose 150 g/Kg) is given as 89.16%; in assay [2] (diet Lactose 250 g/Kg), 92.24%. In addition, the entries for the “Bacterial populations Escherichia coli” value with Escherichia coli (diet Lactose 150 g/Kg) and with Escherichia coli (diet Lactose 250 g/Kg) were 6.30 Log10 CFU/g faeces and 5.70 Log10 CFU/g faeces, respectively. In addition, the “Bacterial populations Lactobacilli” value in the assay on Lactobacilli [3] (diet Lactose 150 g/Kg) amounted to 8.46 Log10 CFU/g faeces; with Lactobacilli [3] (diet Lactose 250 g/Kg), 8.19 Log10 CFU/g faeces.
Turning to fucoidan, the ADG result in assay [4] (FUC added to a LAM diet) is given as “no effect”; in assay [4] (FUC diet (236 ppm) compared to basal diet) it was “significantly higher”. In assay [4] (weaned pigs, 21 days, LAM 300 ppm, FUC 236 ppm), the “average daily feed intake” value is reported as “no effect”. In addition, the “faecal Lactobacilli numbers” value in the assay with Lactobacilli [5] (FUC diet (236 ppm) v basal diet (8.93)) was 9.22. In addition, the faecal lactobacilli populations entry in the assay on Lactobacilli [5] (FUC included with LAM) is listed as “no effect”.
